Experimental data reported in patent publication US20220048988A1, “CELLS EXPRESSING ANTIBODIES TARGETING HUMAN IMMUNODEFICIENCY VIRUS AND METHODS OF USING THE SAME” (priority 2018, published 2022).

Assays:
[1] = test system: viruses isolated from quantitative viral outgrowth assay (QVOA) supernatants; experiment: Neutralization of viruses isolated from QVOA supernatants; assay type: cell-based, HIV
Excerpt: (§1) We developed a method to perform paired testing of neutralization and infected-cell binding (predictive of ADCC^6) and applied this to 36 viruses that we isolated from quantitative viral outgrowth assay (QVOA) supernatants, using a panel of 14 clinically relevant bnAbs.

[2] = test system: viruses isolated from quantitative viral outgrowth assay (QVOA) supernatants; experiment: Infected-cell binding with viruses isolated from QVOA supernatants; parameters: species or system HIV
Excerpt: as §1

[3] = test system: HIV SF162; experiment: Viral inhibition assay (p24); assay type: cell-based; details: antibody alone, absence of NK cells, n=2 replicates
[4] = test system: pseudovirus; experiment: Standard pseudovirus neutralization assay; assay type: cell-based, HIV
Procedure: Virus neutralization by secreted 10-1074. We also tested whether the supernatants secreted from TbnAb are capable of neutralizing HIV by using a standard pseudovirus assay. Briefly, supernatants obtained from TbnAbs were diluted five fold and incubated with pseudovirus. Target cells were then added, and a single-round of infection was allowed to proceed for 48 h^1. In certain lines, we observed 20-30% neutralization of virus at this single concentration (data not shown). […] (data not shown). […] Thus, the data support that the 10-1074 in these supernatants is functionally equivalent to purified 10-1074 on a per concentration basis.

[5] = test system: HIV; details: in a subset of the population; cited from earlier work
[6] = test system: HIV-infected CD4+ T-cells; experiment: Binding of secreted 10-1074 bnAb to HIV-infected CD4+ T-cells (flow cytometry); details: virus from latent reservoir of participant OM5334, high MOI (~70% Gag+)
Excerpt: Binding of secreted 10-1074 bnAb to HIV-Infected CD4^+ T-cells. […] These cells were then stained with a fluorochrome-conjugated anti-human-IgG1 antibody, and analyzed by flow cytometry. […] We therefore performed an additional experiment using a lower multiplicity of infection (MOI) of the HIV molecular clone SF162. […] However, it has been well-established that Ab-binding to infected cells is predictive of ADCC^6.

[7] = test system: HIV envelope expressing HeLa cells; experiment: HIV binding: HIV envelope expressing HeLa cells (flow cytometry); details: supernatant of transduced cells
Procedure: HIV envelope expressing HeLa cells were obtained from NIH AIDS Reagent Program (69T1 RevEnv Cells, #3336). HeLa Envelope cells were fixed with 4.2% paraformaldehyde (BD, #554655) for 20 minutes at 4° C. Cells were washed in chilled Facs Buffer (PBS+2% FBS) and incubated in supernatant containing secreted antibody from transduced Jurkat T cells or non-specific antibodies from nontransduced Jurkat T cells for 1 hour at room temperature. Cells were washed an additional two times in Facs Buffer and incubated with goat anti-human IgG (H+L) FITC (Life Technologies, #H10301) for 30 minutes at room temperature.
To test whether the T cell secreted antibodies maintain their ability to recognize HIV envelope, we used HeLa cells expressing Env obtained from the AIDS reagent program.

[8] = test system: non-expressing cells; experiment: HIV binding: non-expressing cells (flow cytometry); details: supernatant of transduced cells
[9] = biological target: HIV envelope (Env) expressed on HeLa cells (69T1 RevEnv Cells) (HIV); experiment: cell-based or functional assay
[10] = biological target: 36 viruses isolated from quantitative viral outgrowth assay (QVOA) supernatants; experiment: cell-based or functional assay

10-1074: Monoclonal antibody 10-1074 targets the V3 glycan supersite on the HIV-1 envelope (Env) protein; broadly neutralizing
viruses potently neutralized ([1]; 36 viruses isolated from QVOA supernatants): 24/36
median IC50 against reservoir viruses ([1]; reservoir viruses): 0.3 µg/mL
binding characteristics (breadth and potency) ([2]; 36 viruses, panel of 14 bnAbs): superior binding characteristics
infected cell binding ([2]; OM5162 virus isolate #3): lack of 10-1074 binding
infected cell binding ([2]; patient OM5162 virus isolate #1): binding
HIV p24 (viral inhibition) ([3]; FIG. 10A): 6892.442±168.555
HIV p24 (viral inhibition) ([3]; FIG. 10B): 757.911±163.351
HIV p24 (viral inhibition) ([3]; FIG. 10C): 22914.671±2305.507
concentration giving 20-30% neutralization ([4]; purified antibody curves): 0.01 to 0.1 µg/mL
HIV RNA levels [5]: transiently decrease HIV RNA levels
binding to HIV-infected CD4+ T cells [6]: efficient binding

TbnAb secreted 10-1074: 10-1074 antibody secreted into supernatants by transduced T cells
binding to envelope-expressing cells [7]: bind
neutralization of virus ([4]; supernatants diluted five fold (0.03 ug/ml of 10-1074), single-round infection 48 h, certain lines): 20-30%
binding to non-expressing cells [8]: not
binding to HIV-infected CD4+ T cells [6]: specific binding
binding to HIV-infected CD4+ T cells ([6]; listed as antibody secreted by HIV specific TbnAb cell lines): specifically binds

B1: T cell-secreted 10-1074 antibody from the 10-1074 Ab construct (IgG3 constant region) (antibody, V domains shown)
VH: QVQLQESGPGLVKPSETLSVTCSVSGDSMNNYYWTWIRQSPGKGLEWIGYISDRESATYNPSLNSRVVISRDTSKNQLSLKLNSVTPADTAVYYCATARRGQRIYGVVSFGEFFYYYSMDVWGKGTTVTVSS
VL: SYVRPLSVALGETARISCGRQALGSRAVQWYQHRPGQAPILLIYNNQDRPSGIPERFSGTPDINFGTRATLTISGVEAGDEADYYCHMWDSRSGFSWSFGGATRLTVLV
NK cell killing (ADCC; europium cytotoxicity assay, primary NK cells) [9]: 34.5
increase in killing from ADCC [9]: 10.5%

B2: 10-1074 antibody (purified) (antibody, V domains shown)
VH: B1 VH
VL: SYVRPLSVALGETARISCGRQALGSRAVQWYQHRPGQAPILLIYNNQDRPSGIPERFSGTPDINFGTRATLTISGVEAGDEADYYCHMWDSRSGFSWSFGGATRLTVL
median IC50 (neutralization) [10]: 0.3 µg/mL
